The target of one data set is T1, BmoR W128R (Thauera butanivorans, UniProt A7MAQ9, W128R).
T1 construct: full-length BmoR, biosensor plasmid pWT-W128R (PbmoR-bmoR; Pbmo-gfp)
The data set is described as follows: Whole-cell BmoR biosensor dose-response (GFP/OD600, Pbmo-gfp reporter) in 96-deep-well plates with 0-60 mM pentanols or 0-100 mM butanols, LB medium at 30 °C, fitted to the Michaelis-Menten equation. Format: cell-based, E. coli XL10-Gold. The following applies: n = 3; read-out: Apparent Km. As to the method:
(§1) The response values of the above colonies containing various BmoR mutants to n-pentanol, isopentanol, n-butanol or isobutanol were tested. The single colonies were pre-inoculated into 5 mL LB medium with 50 μg/mL carbenicillin and then cultured at 37 °C overnight. […] The excitation and emission wavelengths were set as 470 and 510 nm, respectively. The fluorescence values were normalized as the GFP/OD600 values. Besides, 1 mL of the culture was centrifuged at 5,000 rpm for 5 min. The supernatant was discarded, and the sediment was then resuspended in 2 mL of the physiological saline. 5 μL of the culture was spotted onto glass slides for fluorescence microscopy (UOP 2100). Fifteen colonies which only responded to 10 mM n-pentanol or isopentanol were screened out. The bmoRs in the 15 colonies were amplified and sequenced to identify the mutation sites. Finally, the bmoRs in the five colonies were mutated.
(§2) The OD600 values needed to be subtracted from the OD600 value of the blank LB culture. The excitation and emission wavelengths were set as 470 and 510 nm, respectively. The fluorescence values were normalized as the GFP/OD600 values. Besides, the GFP/OD600 values of the strain containing the plasmid pYH7 was regarded as the background fluorescence to be subtracted. Apparent Km values were estimated with Prism 9.5.0 through non-linear regression of the Michaelis-Menten equation. Finally, one or two effective mutants with orthogonal response towards n-pentanol or isopentanol were obtained.

Another data set concerns the target T2, BmoR WT (Thauera butanivorans, UniProt A7MAQ9).
T2 construct: full-length BmoR, expressed from biosensor plasmid (PbmoR-bmoR; Pbmo-gfp) in E. coli; hexamer
T2 sequence (A7MAQ9 1-669): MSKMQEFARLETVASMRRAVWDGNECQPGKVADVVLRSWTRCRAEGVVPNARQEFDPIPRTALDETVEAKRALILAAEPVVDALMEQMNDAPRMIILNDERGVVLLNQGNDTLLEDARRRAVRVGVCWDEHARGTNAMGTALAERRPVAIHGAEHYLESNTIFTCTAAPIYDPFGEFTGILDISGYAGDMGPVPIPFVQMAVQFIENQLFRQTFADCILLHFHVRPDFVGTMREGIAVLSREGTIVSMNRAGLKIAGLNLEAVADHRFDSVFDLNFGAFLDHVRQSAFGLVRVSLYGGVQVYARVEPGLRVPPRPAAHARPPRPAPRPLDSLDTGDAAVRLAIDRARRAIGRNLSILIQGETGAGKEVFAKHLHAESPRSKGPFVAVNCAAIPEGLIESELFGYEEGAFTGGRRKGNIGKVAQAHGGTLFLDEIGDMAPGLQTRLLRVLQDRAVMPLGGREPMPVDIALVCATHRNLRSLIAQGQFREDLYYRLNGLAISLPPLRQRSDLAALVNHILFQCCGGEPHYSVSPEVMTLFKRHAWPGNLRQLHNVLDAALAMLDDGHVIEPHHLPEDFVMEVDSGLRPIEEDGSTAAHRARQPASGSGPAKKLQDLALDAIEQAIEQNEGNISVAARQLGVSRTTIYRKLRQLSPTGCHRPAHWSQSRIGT
Described as above. The data set is classed as cell-based, E. coli XL10-Gold. The following applies: n = 3; read-out: Apparent Km. The method, then: as §1, §2

The target in data set [1] is T3, BmoR WT (fusion with sfGFP) (Thauera butanivorans, UniProt A7MAQ9).
T3 construct: SUMO-BmoR-TEV-sfGFP-His fusion, E. coli BL21(DE3) lysate supernatant
T3 sequence (A7MAQ9 1-669): T2 sequence (A7MAQ9 1-669)
The data set is described as follows: MicroScale Thermophoresis of sfGFP-fused BmoR in E. coli BL21(DE3) lysate supernatant, 16-point ligand dilution in assay buffer with 1 % DMSO, incubated at 37 °C for 15 min. Format: binding. The following applies: n = 3. The method, then:
(§3) Plasmids pWT-SUMO-BmoR-TEV-sfGFP-His, pWT-SUMO-BmoR^M94V/A117T/F163Y/F272L-TEV-sfGFP-His, and pWT-SUMO-BmoR^M94V/W128R/F272L-TEV-sfGFP-His were individually transformed into E. coli BL21(DE3). […] Subsequently, 100 µL of the seed culture was transferred to 100 mL LB medium and grown at 37 °C until the OD600 value reached 0.8. 0.1 mM IPTG was added into the culture, and the culture was incubated at 16 °C, 170 rpm for 12–18 h. 50 mL centrifuge tubes were used to centrifuge the culture at 5,000 rpm for 15 min to collect the cell pellets. The pellets were then resuspended in 15 mL of the binding buffer, and the cells were disrupted using the ultrasonic cell crusher. The mixture was then centrifuged at 10,000 rpm for 30 min to collect the supernatant. The Kd values of the wild-type BmoR and the mutants towards four SMs were measured by the MicroScale Thermophoresis (MST, Nanotemper) from Wuhan Bio-lab Biotechnology Co., Ltd.
(§4) A 10 µL aliquot of the supernatant was diluted three folds with the assay buffer. The MST sample chamber was opened, and the tray was removed. The diluted protein sample was aspirated using a capillary and placed in the corresponding slot of the tray. The information of the protein samples and assay bugger was input, and the type of capillary was selected. The excitation power was set to “Auto”, and MST power was set to “High”. The concentration of the samples was adjusted using the assay buffer to 1/3 for BmoR^WT, BmoR^M94V/A117T/F163Y/F272L and BmoR^M94V/W128R/F272L. The samples were diluted to 100 µL/2000 µM using the assay buffer. Two eight-well strips were prepared and labeled from 1st to 16th. 10 µL of the assay buffer (1 % DMSO) was added into the 2nd-16th tubes, while 20 µL of the prepared sample was added to the 1st tube. 10 µL from the 1st tube was sequentially diluted into the 2nd-16th tubes. Subsequently, 10 µL of the lysate was added to each tube and mixed thoroughly. The mixed samples were incubated at 37 °C for 15 min before aspirating with a capillary to load into the sample tray. The software was started to begin the experiment.

Another data set addresses T4, BmoR A117T/F163Y (Thauera butanivorans, UniProt A7MAQ9, A117T/F163Y).
T4 construct: full-length BmoR, biosensor plasmid pWT-A117T/F163Y (PbmoR-bmoR; Pbmo-gfp)
The data set is described as follows: cell-based. Further details: species or system E. coli XL10-Gold. The following applies: n = 3; read-out: Apparent Km. As to the method:
as §1
The OD600 values needed to be subtracted from the OD600 value of the blank LB culture. The excitation and emission wavelengths were set as 470 and 510 nm, respectively. The fluorescence values were normalized as the GFP/OD600 values. Besides, the GFP/OD600 values of the strain containing the plasmid pYH7 was regarded as the background fluorescence to be subtracted. Apparent Km values were estimated with Prism 9.5.0 through non-linear regression of the Michaelis-Menten equation. […]

For data set [2], the target named is T5, BmoR M94V/W128R/F272L (fusion with sfGFP) (Thauera butanivorans, UniProt A7MAQ9, F272L/M94V/W128R).
T5 construct: SUMO-BmoR-TEV-sfGFP-His fusion, E. coli BL21(DE3) lysate supernatant
The data set is described as follows: MicroScale Thermophoresis of sfGFP-fused BmoR in E. coli BL21(DE3) lysate supernatant, 16-point ligand dilution in assay buffer with 1 % DMSO, incubated at 37 °C for 15 min. The following applies: n = 3. Format: binding. As to the method:
as §3, §4
In general terms: Microscale thermophoresis detects binding through changes in fluorescence in a small temperature gradient.

A further data set concerns Δ29. The following applies: equivalent isopentanol stress (40 mM). As to the method: (§5) A library of E. coli MG1655-derived strains with different genomic large-fragment deletions ranging from 14 to 143 kb was constructed and stored. To screen pentanol-tolerant strains, the strains from the library were inoculated into 3 mL LB medium and cultured at 37 °C for 8–10 h to obtain seed cultures. Subsequently, 50 µL of the seed culture was transferred to 5 mL LB medium in the presence of 20 mM n-pentanol or isopentanol and grown at 37 °C with 220 rpm for 12 h. A microplate reader (BioTek Cytation 3) was used to detect the OD600 values.

Another data set concerns Δ33. The following applies: 40 mM. The method, then:
as §5

The target in data set [3] is T6, BmoR M94V/A117T/F163Y/F272L (fusion with sfGFP) (Thauera butanivorans, UniProt A7MAQ9, A117T/F163Y/F272L/M94V).
T6 construct: SUMO-BmoR-TEV-sfGFP-His fusion, E. coli BL21(DE3) lysate supernatant
Description: MicroScale Thermophoresis of sfGFP-fused BmoR in E. coli BL21(DE3) lysate supernatant, 16-point ligand dilution in assay buffer with 1 % DMSO, incubated at 37 °C for 15 min. The data set is classed as binding. The following applies: n = 3. As to the method: as §3, §4

A further data set relates to E. coli MG1655. The data set is described as follows: Tolerance of wild-type MG1655 to pentanols (OD600). The method, then: To assess the tolerance of wild-type MG1655 to n-pentanol or isopentanol, the single colony of wild-type MG1655 was inoculated into 3 mL LB medium and cultured at 37 °C for 8–10 h to obtain the seed culture. 50 µL of the seed culture was transferred to 5 mL LB medium adding 0–100 mM n-pentanol or isopentanol and grown at 37 °C with 220 rpm for 12 h. A microplate reader (BioTek Cytation 3) was used to detect the OD600 values.

T4 sequence (A7MAQ9 entry or part of it A117T/F163Y): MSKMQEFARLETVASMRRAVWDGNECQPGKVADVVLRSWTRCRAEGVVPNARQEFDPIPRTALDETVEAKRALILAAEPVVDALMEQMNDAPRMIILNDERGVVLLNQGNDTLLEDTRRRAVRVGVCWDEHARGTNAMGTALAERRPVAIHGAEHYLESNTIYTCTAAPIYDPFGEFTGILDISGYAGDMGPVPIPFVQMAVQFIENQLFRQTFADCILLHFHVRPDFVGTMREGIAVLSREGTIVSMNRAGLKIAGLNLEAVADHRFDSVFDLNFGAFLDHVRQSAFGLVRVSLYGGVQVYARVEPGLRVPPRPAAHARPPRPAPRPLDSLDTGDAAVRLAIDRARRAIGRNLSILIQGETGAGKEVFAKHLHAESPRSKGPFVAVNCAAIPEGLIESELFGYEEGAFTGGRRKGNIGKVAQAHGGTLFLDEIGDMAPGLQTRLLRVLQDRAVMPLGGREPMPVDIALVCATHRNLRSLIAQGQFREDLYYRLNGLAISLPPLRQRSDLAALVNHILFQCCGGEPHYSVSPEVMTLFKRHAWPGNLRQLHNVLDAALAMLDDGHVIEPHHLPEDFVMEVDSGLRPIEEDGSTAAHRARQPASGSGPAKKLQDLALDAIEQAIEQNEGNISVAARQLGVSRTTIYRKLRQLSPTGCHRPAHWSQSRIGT
T1 sequence (A7MAQ9 entry or part of it W128R): as the sequence (A7MAQ9 entry or part of it A117T/F163Y) above, with T117A, W128R, Y163F counted along it
T6 sequence (A7MAQ9 entry or part of it M94V/A117T/F163Y/F272L): as the sequence (A7MAQ9 entry or part of it A117T/F163Y) above, with M94V, F272L counted along it
T5 sequence (A7MAQ9 entry or part of it M94V/W128R/F272L): as the sequence (A7MAQ9 entry or part of it A117T/F163Y) above, with M94V, T117A, W128R, Y163F, F272L counted along it

Regarding `CC(C)CO` [Isobutanol, 2-methyl-1-propanol], the EC50 was 63.3 mM on BmoR W128R, 8.75 mM at BmoR WT and 22.3 mM on BmoR A117T/F163Y. Also, the Kd (as a rule, the free concentration of one partner at which half of the binding sites on the other are occupied at equilibrium, for simple one-to-one binding) in data set [1] is 11.8 µM.
As to `CC(C)CCO` [Isopentanol, 3-methyl-1-butanol], the figures for the EC50 at BmoR W128R and on BmoR WT were 58.2 mM and 3.99 mM, respectively. Further, the Kd in data set [2] was found to be 0.0261 µM; in data set [1] it was 0.0938 µM.
Turning to `CC(C)CCO` [isopentanol], in the data set on Δ29, the “fold higher biomass accumulation than the wild type” value was found to be 1.58 fold. Besides, the “fold increase of OD600 / biomass compared to the wild type” value in the data set on Δ33 is 1.34 fold.
For the compound `CCCCCO` [n-Pentanol, 1-pentanol], the values for the EC50 on BmoR WT and on BmoR A117T/F163Y were 5.09 mM and 59.5 mM, respectively. Moreover, the Kd in [3] stood at 0.322 mM; in data set [1] it was 0.106 µM.
On to `CCCCCO` [n-pentanol], for which the “fold reduction of OD600” value with E. coli MG1655 (20 mM) was 2.67 fold. In addition, the “OD600 of wild-type MG1655” value in the data set with E. coli MG1655 (20 mM, 12 h) was found to be 0.420 ± 0.032. In addition, the “growth of wild-type MG1655 (in words)” value in the data set on E. coli MG1655 (60 mM) is “failing to grow”.

(Values after PMC13227213, “Design of strictly orthogonal biosensors for maximizing renewable biofuel overproduction” (Journal of Advanced Research, 2025).)
